Test results reported in patent US10849902B2, “Medicament for treating heart failure” (TAKEDA PHARMACEUTICAL COMPANY LIMITED, priority 2015, dated 2020).

Experiments:
[1] = tested on: transverse aortic constriction (TAC) model; details: Non patent literature 5; cited from earlier work
[2] = drug administered after the cardiac load is given; Non patent literature 6; cited from earlier work
CSQ-Tg mice [3] = test: Atrial weight reduction effect in heart failure model animal (CSQ-Tg mice); assay type: in vivo; details: CSQ-Tg male mice, 5 weeks old, 30 mg/kg body weight/day oral QD for 14 days, n=7; p<0.05 vs vehicle (t-test)
Protocol: (§1) Calsequestrin (CSQ) cardiac specific transgenic mice (CSQ-Tg mice), which were reported in Larry R. Jones et al., J. Clin. Invest. 101: 1385-1393, 1998, were obtained from University of Pennsylvania, breeded in our company and put in use. In tests, using male and female mice, administration of a medicament was started on and after the mice reached 5 weeks old. The animals were raised in the conditions: room temperature: 20 to 26° c., humidity: 40 to 70%, illumination time: 12 hours/day (7:00-19:00) by giving a solid feed (CE-2, manufactured by CLEA Japan, Inc.) and tap water. In the CSQ-Tg mice, as already reported, Ca^2+ intracellular release was suppressed; myocardial contraction declined and cardiac output decreased. Cardiac hypertrophy and heart failure developed.
In this example, using CSQ-Tg mice as a heart failure model animal, the atrial weight reduction effect of compound A′ was evaluated.
Compound A′ was suspended (10 mL/kg) in a 0.5% aqueous methylcellulose solution (hereinafter in Examples, sometimes referred to as a “vehicle”) and orally administered to CSQ-Tg male mice of 5 weeks old with heart failure in a dosage of 30 mg/kg body weight/day once per day (QD) for 14 days (n=7). To negative control (vehicle administration group) mice, a 0.5% aqueous methylcellulose solution was administered (n=9). Thereafter, the atrial weight of the mice was measured.

CSQ-Tg mice [4] = test: Improvement effect on left ventricular hypertrophy and lung weight increase in CSQ-Tg mice; assay type: in vivo; details: CSQ-Tg female mice, 5 weeks old, 30 mg/kg body weight/day oral QD for 14 days, n=10; p<0.05 vs vehicle (t-test)
Protocol: as §1
In this example, the effect of compound A′ in improving left ventricular hypertrophy and lung weight increase caused by heart failure was examined.
Compound A′ was suspended in a 0.5% aqueous methylcellulose solution (10 mL/kg) and orally administered to CSQ-Tg female mice of 5 weeks old with heart failure in a dosage of 30 mg/kg body weight/day once per day (QD) for 14 days (n=10). […] Thereafter, lung weight (Lung), left-ventricle weight (LV) and body weight (BW) were individually measured and were standardized with the BW.

CSQ-Tg mice [5] = test: Effect on survival rate of heart failure model animals (CSQ-Tg mice); assay type: in vivo; details: CSQ-Tg female mice, 5 weeks old, 30 mg/kg body weight/day oral QD for 30 days, n=30; log-rank test p<0.001 vs vehicle
Protocol: as §1
In this example, effect of compound A′ on survival rate of heart failure model animals was examined.
Compound A′ was orally administered to CSQ-Tg female mice (n=30) of 5 weeks old in a dosage of 30 mg/kg body weight/day once per day (QD) for 30 days. To negative control (vehicle administration group) mice, a 0.5% aqueous methylcellulose solution was administered (n=30).

Compound	Cardiac hypertrophy [1]	Cardiac hypofunction [2]	Left atrial weight, average value (CSQ-Tg mice [3]) [mg]	LV/BW (left-ventricle weight standardized with body weight), average value ± standard deviation (CSQ-Tg mice [4])	Lung/BW (lung weight standardized with body weight), average value ± standard deviation (CSQ-Tg mice [4])	Survival rate (Kaplan-Meier, FIG. 1) (CSQ-Tg mice [5])
C[C@@H](N[C@H]1CCCC[C@@H]1NC(=O)c1ccc(Cl)cc1)c1cccc2ccccc12 [Calhex231]	cardiac hypertrophy is improved	cardiac hypofunction is not improved	–	–	–	–
CCc1ccc(C(CC)(CC)NC(=O)c2c(C)nn3c2N[C@@H](c2ccccc2)CC3(C)C)cc1 [Compound A′]	–	–	8.4	7.9 ± 1.0	6.8 ± 1.3	significantly improved
